The values below come from ChEMBL document CHEMBL5442741, “ASAP - In vitro kinase profile” (2024).

Values joined by “and” are separate entries in the source; they are usually repeats but may differ in a detail not shown here. Equal entries are not always repeated.

Assay [1] concerns the target Casein kinase II subunit alpha' (Homo sapiens) (UniProt P19784). The experiment in a line: Enzymatic radiometric [Km ATP] KinaseProfiler LeadHunter assay, kinase: CK2-alpha2, catalogue number: 14-689KP The assay has been performed by Eurofins Discovery. The settings on record: ATP concentration 10.0 uM, Test compound concentration 10.0 uM.
The target of assay [2] is PI3-kinase p110-alpha/p85-alpha (Homo sapiens) (UniProt P27986+P42336). The experiment in a line: Enzymatic radiometric [Km ATP] KinaseProfiler LeadHunter assay, kinase: PI3 Kinase (p110-alpha/p85-alpha), catalogue number: 14-602KP The assay has been performed by Eurofins Discovery. The format is protein-complex assay. The following applies: ATP concentration 200.0 uM, Test compound concentration 10.0 uM.

Assay [3] addresses Cyclin-dependent kinase 1/cyclin B (Homo sapiens) (UniProt P06493+P14635+Q8WWL7+O95067). The assay is described as follows: Enzymatic radiometric [Km ATP] KinaseProfiler LeadHunter assay, kinase: CDK1/cyclinB, catalogue number: 14-450KP The assay has been performed by Eurofins Discovery. It counts as protein-complex assay. The settings on record: ATP concentration 45.0 uM, Test compound concentration 10.0 uM.

Assay [4] deals with Protein kinase C theta type (Homo sapiens) (UniProt Q04759). The experiment in a line: Enzymatic radiometric [Km ATP] KinaseProfiler LeadHunter assay, kinase: PKC-theta, catalogue number: 14-444KP The assay has been performed by Eurofins Discovery. The settings on record: ATP concentration 15.0 uM, Test compound concentration 10.0 uM.
Chain of Protein kinase C theta type (Homo sapiens) (Q04759 whole entry, looked up): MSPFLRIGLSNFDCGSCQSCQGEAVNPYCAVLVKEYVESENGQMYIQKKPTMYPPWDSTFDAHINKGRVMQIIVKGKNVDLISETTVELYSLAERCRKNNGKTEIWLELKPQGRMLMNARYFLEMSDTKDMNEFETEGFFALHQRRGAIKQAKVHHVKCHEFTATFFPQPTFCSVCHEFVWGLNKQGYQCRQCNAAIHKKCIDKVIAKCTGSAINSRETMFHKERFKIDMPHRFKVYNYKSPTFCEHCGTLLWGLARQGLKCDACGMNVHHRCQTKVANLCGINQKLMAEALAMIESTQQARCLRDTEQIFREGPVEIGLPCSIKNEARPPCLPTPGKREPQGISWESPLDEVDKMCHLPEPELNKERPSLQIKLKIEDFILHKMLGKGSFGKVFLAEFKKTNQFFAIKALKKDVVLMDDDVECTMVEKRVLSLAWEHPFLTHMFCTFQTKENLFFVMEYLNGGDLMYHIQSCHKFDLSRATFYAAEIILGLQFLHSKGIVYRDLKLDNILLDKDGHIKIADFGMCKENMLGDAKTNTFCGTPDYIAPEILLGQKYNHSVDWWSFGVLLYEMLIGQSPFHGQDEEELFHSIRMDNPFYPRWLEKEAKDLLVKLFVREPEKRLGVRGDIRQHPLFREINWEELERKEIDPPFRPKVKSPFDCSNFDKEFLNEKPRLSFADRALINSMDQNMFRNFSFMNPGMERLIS
For assay [5], the target named is Ribosomal protein S6 kinase beta-1 (Homo sapiens) (UniProt P23443). The assay is described as follows: Enzymatic radiometric [Km ATP] KinaseProfiler LeadHunter assay, kinase: p70S6K, catalogue number: 14-486KP The assay has been performed by Eurofins Discovery. The following applies: ATP concentration 15.0 uM, Test compound concentration 10.0 uM.
Chain of Ribosomal protein S6 kinase beta-1 (Homo sapiens) (P23443 whole entry, looked up): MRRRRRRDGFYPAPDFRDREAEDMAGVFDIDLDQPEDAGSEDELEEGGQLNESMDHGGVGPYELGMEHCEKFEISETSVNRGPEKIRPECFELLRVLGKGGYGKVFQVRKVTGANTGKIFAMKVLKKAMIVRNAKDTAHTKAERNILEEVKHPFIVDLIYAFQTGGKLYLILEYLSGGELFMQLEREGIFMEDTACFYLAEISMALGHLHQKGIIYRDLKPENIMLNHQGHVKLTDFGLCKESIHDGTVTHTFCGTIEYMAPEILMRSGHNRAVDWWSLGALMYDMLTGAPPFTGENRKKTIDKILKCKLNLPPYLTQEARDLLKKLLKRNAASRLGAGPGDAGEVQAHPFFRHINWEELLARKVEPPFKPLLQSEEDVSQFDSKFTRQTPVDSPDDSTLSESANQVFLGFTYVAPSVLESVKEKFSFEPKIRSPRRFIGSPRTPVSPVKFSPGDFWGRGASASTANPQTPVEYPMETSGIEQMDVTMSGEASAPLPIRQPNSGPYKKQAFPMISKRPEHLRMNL
Assay [6] has as its target T1, Serine/threonine-protein kinase Chk1 (Homo sapiens) (UniProt O14757).
T1 sequence (whole entry): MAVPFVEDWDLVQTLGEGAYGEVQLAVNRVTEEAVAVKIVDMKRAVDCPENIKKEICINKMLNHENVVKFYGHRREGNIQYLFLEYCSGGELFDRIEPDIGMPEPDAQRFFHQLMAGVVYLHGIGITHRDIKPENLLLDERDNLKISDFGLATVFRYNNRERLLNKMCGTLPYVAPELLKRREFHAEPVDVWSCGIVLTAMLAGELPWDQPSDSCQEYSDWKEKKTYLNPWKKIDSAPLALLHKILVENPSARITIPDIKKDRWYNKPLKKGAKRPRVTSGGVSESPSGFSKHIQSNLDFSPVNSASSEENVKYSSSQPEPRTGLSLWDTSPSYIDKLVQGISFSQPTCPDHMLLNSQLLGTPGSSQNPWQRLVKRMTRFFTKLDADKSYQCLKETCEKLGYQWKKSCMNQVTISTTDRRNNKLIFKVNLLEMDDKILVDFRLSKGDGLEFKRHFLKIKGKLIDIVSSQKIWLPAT
The experiment in a line: Enzymatic radiometric [Km ATP] KinaseProfiler LeadHunter assay, kinase: CHK1, catalogue number: 14-346KP The assay has been performed by Eurofins Discovery. The following applies: ATP concentration 90.0 uM, Test compound concentration 10.0 uM.

Assay [7] concerns the target Platelet-derived growth factor receptor beta (Homo sapiens) (UniProt P09619). The assay is described as follows: Enzymatic radiometric [Km ATP] KinaseProfiler LeadHunter assay, kinase: PDGFR-beta, catalogue number: 14-463KP The assay has been performed by Eurofins Discovery. The following applies: ATP concentration 200.0 uM, Test compound concentration 10.0 uM.
The target in assay [8] is Casein kinase I isoform gamma-1 (Homo sapiens) (UniProt Q9HCP0). The experiment in a line: Enzymatic radiometric [Km ATP] KinaseProfiler LeadHunter assay, kinase: CK1-gamma1, catalogue number: 14-711KP The assay has been performed by Eurofins Discovery. The settings on record: ATP concentration 15.0 uM, Test compound concentration 10.0 uM.
Chain of Casein kinase I isoform gamma-1 (Homo sapiens) (Q9HCP0 whole entry, looked up, canonical isoform): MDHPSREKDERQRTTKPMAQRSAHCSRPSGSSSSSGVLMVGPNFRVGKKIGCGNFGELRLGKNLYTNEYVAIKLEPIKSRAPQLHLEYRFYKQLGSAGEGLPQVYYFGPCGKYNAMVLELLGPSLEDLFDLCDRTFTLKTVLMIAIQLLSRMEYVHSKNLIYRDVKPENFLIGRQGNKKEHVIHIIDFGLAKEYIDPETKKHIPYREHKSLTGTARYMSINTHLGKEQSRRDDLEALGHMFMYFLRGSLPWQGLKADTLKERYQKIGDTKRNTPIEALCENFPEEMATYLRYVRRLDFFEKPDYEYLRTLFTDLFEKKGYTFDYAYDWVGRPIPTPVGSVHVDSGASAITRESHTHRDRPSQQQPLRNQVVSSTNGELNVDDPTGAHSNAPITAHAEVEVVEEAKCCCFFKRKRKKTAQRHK
In assay [9] the target is T2, Inhibitor of nuclear factor kappa-B kinase subunit alpha (Homo sapiens) (UniProt O15111).
T2 sequence (whole entry): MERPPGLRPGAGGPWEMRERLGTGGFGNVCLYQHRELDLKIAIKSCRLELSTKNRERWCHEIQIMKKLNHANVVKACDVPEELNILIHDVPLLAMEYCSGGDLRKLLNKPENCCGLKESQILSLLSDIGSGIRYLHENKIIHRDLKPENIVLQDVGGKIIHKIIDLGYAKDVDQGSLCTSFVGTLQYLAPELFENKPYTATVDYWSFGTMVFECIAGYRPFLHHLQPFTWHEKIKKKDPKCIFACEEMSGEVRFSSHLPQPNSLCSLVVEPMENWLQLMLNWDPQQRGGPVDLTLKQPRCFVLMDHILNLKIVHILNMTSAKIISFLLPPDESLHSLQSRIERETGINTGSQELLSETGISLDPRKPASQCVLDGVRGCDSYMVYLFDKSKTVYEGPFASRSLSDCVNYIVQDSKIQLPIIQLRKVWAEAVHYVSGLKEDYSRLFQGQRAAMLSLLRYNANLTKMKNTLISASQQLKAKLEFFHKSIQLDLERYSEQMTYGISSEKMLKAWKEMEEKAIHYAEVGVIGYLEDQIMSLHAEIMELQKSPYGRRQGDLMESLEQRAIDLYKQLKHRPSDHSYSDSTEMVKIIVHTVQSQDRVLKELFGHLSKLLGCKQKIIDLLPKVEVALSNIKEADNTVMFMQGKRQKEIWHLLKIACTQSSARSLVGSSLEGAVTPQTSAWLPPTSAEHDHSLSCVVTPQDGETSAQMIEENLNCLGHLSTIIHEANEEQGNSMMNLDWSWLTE
The experiment in a line: Enzymatic radiometric [Km ATP] KinaseProfiler LeadHunter assay, kinase: IKK-alpha, catalogue number: 14-461KP The assay has been performed by Eurofins Discovery. The settings on record: ATP concentration 10.0 uM, Test compound concentration 10.0 uM.

The target in assay [10] is T3, Mitogen-activated protein kinase kinase kinase 7 (Homo sapiens) (UniProt O43318).
T3 sequence (whole entry): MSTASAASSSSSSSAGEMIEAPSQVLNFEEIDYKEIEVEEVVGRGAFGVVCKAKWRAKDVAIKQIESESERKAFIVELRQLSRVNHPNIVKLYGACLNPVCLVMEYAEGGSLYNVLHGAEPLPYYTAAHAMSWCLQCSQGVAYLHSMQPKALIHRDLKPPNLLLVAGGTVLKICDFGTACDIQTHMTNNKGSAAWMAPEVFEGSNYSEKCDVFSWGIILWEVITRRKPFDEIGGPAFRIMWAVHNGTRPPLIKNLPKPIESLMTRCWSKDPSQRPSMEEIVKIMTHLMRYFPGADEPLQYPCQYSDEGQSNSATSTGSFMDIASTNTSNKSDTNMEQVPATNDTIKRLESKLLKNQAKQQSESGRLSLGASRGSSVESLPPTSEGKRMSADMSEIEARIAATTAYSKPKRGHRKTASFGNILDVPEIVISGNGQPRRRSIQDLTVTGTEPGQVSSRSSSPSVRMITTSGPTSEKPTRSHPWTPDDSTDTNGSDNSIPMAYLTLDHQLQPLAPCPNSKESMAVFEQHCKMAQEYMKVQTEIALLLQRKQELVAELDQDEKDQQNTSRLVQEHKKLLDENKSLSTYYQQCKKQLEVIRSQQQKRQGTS
The experiment in a line: Enzymatic radiometric [Km ATP] KinaseProfiler LeadHunter assay, kinase: TAK1, catalogue number: 14-600KP The assay has been performed by Eurofins Discovery. The settings on record: ATP concentration 45.0 uM, Test compound concentration 10.0 uM.

Chain of Platelet-derived growth factor receptor beta (Homo sapiens) (P09619 whole entry, canonical isoform): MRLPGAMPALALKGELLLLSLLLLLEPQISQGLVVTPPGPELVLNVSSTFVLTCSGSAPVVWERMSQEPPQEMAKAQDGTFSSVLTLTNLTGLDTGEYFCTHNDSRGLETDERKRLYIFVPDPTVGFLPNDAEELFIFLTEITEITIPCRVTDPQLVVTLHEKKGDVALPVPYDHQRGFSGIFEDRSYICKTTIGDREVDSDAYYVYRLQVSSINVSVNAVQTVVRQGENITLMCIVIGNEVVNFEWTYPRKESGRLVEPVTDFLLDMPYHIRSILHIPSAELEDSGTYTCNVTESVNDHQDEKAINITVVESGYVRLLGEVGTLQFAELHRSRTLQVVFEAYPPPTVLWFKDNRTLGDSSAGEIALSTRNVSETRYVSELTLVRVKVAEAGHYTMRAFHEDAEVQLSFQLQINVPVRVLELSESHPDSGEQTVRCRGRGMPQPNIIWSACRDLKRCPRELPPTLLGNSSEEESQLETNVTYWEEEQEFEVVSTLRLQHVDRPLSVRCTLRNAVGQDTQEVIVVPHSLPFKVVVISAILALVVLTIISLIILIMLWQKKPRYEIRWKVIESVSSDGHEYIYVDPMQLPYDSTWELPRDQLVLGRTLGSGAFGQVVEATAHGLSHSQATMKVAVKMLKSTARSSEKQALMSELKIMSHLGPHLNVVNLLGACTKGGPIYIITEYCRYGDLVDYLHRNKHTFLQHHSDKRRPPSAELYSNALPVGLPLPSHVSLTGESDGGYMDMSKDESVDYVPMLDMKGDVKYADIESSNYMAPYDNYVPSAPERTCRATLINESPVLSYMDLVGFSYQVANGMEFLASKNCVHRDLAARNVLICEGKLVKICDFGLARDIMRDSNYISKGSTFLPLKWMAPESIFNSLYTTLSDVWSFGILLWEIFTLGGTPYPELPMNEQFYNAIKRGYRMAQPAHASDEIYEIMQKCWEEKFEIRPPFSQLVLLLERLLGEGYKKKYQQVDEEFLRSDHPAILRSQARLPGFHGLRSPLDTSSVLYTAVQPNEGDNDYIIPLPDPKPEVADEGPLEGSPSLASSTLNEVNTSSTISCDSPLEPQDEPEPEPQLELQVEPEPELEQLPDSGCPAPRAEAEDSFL
Chain of Casein kinase II subunit alpha' (Homo sapiens) (P19784 whole entry, looked up): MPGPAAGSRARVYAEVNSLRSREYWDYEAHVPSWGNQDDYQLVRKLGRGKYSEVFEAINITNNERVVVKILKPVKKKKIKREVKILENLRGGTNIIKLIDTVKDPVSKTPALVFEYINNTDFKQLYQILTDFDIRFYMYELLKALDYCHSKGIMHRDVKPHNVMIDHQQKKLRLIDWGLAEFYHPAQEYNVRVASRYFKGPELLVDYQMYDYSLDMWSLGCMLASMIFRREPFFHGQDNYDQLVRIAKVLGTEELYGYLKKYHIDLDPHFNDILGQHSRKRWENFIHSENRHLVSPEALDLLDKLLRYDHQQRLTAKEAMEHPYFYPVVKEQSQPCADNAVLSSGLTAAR

As to `COc1ccc([C@H](Cc2nnn[nH]2)NC(=O)c2ncnc3[nH]ccc23)cc1`, the Activity in [1] is 93%; in assay [2], 99%; in assay [3], 98%; in assay [4] it was 91%; in [5] it was 113%; in assay [6] it was 110%. Moreover, the Activity in [7] turned out to be 103%; in assay [8], 94%; in [9] it was 98%; in assay [10] it was 99%.
In the case of `CC(C)[C@H](Nc1ncnc2[nH]c(-c3cnn(C)c3C#N)cc12)c1ccc2c(n1)OCCO2`, the Activity in assay [1] came out at 95%; in assay [2], 70%; in assay [3] it was 89%; in assay [4] it was 96%; in [5] it was 125%; in assay [6], 119%. Further, the Activity in assay [7] is 92%; in [8], 100%; in [9], 120%; in [10] it was 94%.
Consider `CC(C)[C@@H](Nc1ncnc2[nH]ccc12)c1ccc2c(c1)S(=O)(=O)CCC2`, for which the Activity in assay [1] turned out to be 90%; in assay [2], 104%; in assay [3], 129%; in [4] it was 101%; in [5], 98%; in assay [6], 84%. In addition, the Activity in assay [7] is 99%; in [8], 102%; in assay [9] it was 91%; in assay [10], 83%.
`C[C@H](C(=O)O)[C@@H](NC(=O)c1ncnc2[nH]ccc12)c1ccc(Br)cc1`: the Activity in assay [1] turned out to be 91%; in [2], 100%; in assay [3] it was 92%; in assay [4] it was 100%; in assay [5], 97%; in assay [6] it was 99%. Further, the Activity is 110% in assay [7], 92% in assay [8], 99% in assay [9] and 95% in [10].
Regarding `COc1ccc([C@@H](Cc2nnn[nH]2)NC(=O)c2ncnc3[nH]ccc23)cc1`, the Activity in [1] came out at 88%; in assay [2], 101%; in assay [3] it was 108%; in assay [4], 90%; in assay [5], 81%; in assay [6] it was 95%. Also, the Activity turned out to be 102% in assay [7], 95% in assay [8], 99% in assay [9] and 88% in [10].
For the molecule `CC(C)[C@@H](Nc1ncnc2[nH]c(C(=O)N[C@@H]3CCN(C)C3)cc12)c1ccc2c(c1)S(=O)(=O)CCC2`, the Activity in assay [1] stood at 98%; in assay [2], 104%; in assay [3], 103%; in assay [4] it was 102%; in assay [5] it was 104%; in [6] it was 118%. For the same molecule, the Activity in assay [7] turned out to be 83%; in [8] it was 100%; in assay [9], 82%; in assay [10], 100%.
For the molecule `Cn1ncc(-c2cc3c(N[C@@H](c4ccc5c(n4)OCCO5)C(C)(C)C)ncnc3[nH]2)c1C#N`, the Activity is 92% in [1]; 75% in assay [2]; 97% in [3]; 96% in assay [4]; 108% in assay [5]; 125% in assay [6]. The Activity was found to be 100% in assay [7], 94% in assay [8], 125% in assay [9] and 95% in [10].
`Cc1nn(C)cc1-c1cc2c(N[C@H](c3ccc4c(c3)S(=O)(=O)CCC4)C(C)C)ncnc2[nH]1`: the Activity was 92% in assay [1]; 102% in assay [2]; 91% in assay [3]; 106% in assay [4]; 108% in [5]; 102% in assay [6]. Further, the Activity was found to be 97% in assay [7], 99% in assay [8], 94% in assay [9] and 100% in [10].
For `CC(C)[C@H](Nc1ncnc2[nH]ccc12)c1ccc2c(c1)S(=O)(=O)CCC2`, the Activity is 87% in [1]; 94% in assay [2]; 93% in assay [3]; 88% in [4]; 103% in assay [5]; 110% in assay [6]. The Activity in [7] is 89%; in assay [8] it was 97%; in [9], 92%; in assay [10], 90%.
Take `CC(C)[C@@H](Nc1ncnc2[nH]c(-c3cnn(C)c3C#N)cc12)c1ccc2c(n1)OCCO2`: the Activity is 86% and 93% in assay [1]; 49% and 55% in assay [2]; 95% and 88% in [3]; 93% and 111% in assay [4]; 82% and 106% in [5]; 108% and 120% in assay [6]. Besides, the Activity is 108% and 93% in [7]; 87% and 99% in assay [8]; 111% and 104% in [9]; 103% and 100% in assay [10].
Take `CNC(=O)Cn1cc(-c2cc3c(N[C@@H](c4ccc5c(c4)S(=O)(=O)CCC5)C(C)C)ncnc3[nH]2)cn1`: the Activity in assay [1] was found to be 88%; in assay [2] it was 102%; in assay [3], 88%; in assay [4], 91%; in assay [5] it was 100%; in assay [6] it was 107%. Also, the Activity in assay [7] was determined as 90%; in assay [8] it was 97%; in assay [9], 84%; in [10], 99%.
